These results are taken from patent US9115385B2, “Methods and compositions for topoisomerase I modulated tumor suppression” (RG BIOPHARMA, LLC, priority 2006, dated 2015).

The test system of one data set is HT29 cells. Nature of the data set: cell viability assay with camptothecin, HT29. The class given is cell-based, human. The settings on record: viability 3 days after treatment. The text has this:
FIG. 7 is a series of graphs showing the correlation of serine phosphorylation, ARF/topoisomerase I complex formation and camptothecin sensitivity. FIGS. 7A-C show the relative amounts of (A) serine phosphorylation of topoisomerase I, (B) total topoisomerase I, and (C) ARF-topoisomerase I complex following topoisomerase I immunoprecipitation in the indicated cell types. FIG. 7D is a graph showing the viability of the indicated cell types 3 days after treatment with camptothecin.
Studies of a large panel of cell lines have shown that cell lines with overexpressed CK2 (FIGS. 11B1-B3 and 11C1-C3) display hyper serine phosphorylation of topo I (FIG. 11D) that correlates with sensitivity to camptothecin (FIG. 11A). […] Triplicate wells were then treated with the indicated doses of camptothecin for 18 hours, and monitored for viability 3 days post-start of treatment. […] Referring to FIGS. 11B1-B3, PKC (B1), cdk1 (B2), and CK2 (B3) levels in cancer cell lines: Cell lysates were prepared from the indicated cancer cell lines and assayed for enzymatic activities, or evaluated by Western analysis for total PKC, cdk1, or CK2 protein levels. […] Referring to FIGS. 11C1-C3 PKC (C1), cdk1 (C2), and CK2 (C3) levels in normal cell lines, compared to H358 and H23: Cell lysates were prepared from the indicated cell lines and evaluated as before. […]

Another data set concerns Hela cells. Nature of the data set: cell viability assay with camptothecin, Hela. The class given is cell-based. The settings on record: compared with H23 and H358. An excerpt: FIG. 8A is a graph showing the viability of the indicated cell types 3 days after treatment with camptothecin. FIG. 8B is an electrophoretic gel of a topoisomerase I immunoprecipitation followed by an ARF and topoisomerase I Western analysis. FIG. 8C is an electrophoretic gel of a topoisomerase I immunoprecipitation and a phosphoserine Western analysis. FIG. 8D is an ARF Western analysis. […] The sensitivity of Hela cells to topoisomerase I inhibitors is also intermediate to that of […] and H23 cells.
The assay in FIG. 8A was carried out as in FIG. 7D. ARF/topoisomerase I complex formation was examined using the co-immunoprecipitation assay described for FIGS. 3A and 3C. A reduced but detectable level of ARF/topoisomerase I complex formation in Hela cells was observed, compared to H358 cells (FIG. 8B). ARF/topoisomerase I complex formation in H23 cells was undetectable (FIG. 8B), confirming previous experiments (FIG. 1C).

A further data set concerns H23 cells. The experiment in a line: cell viability assay with camptothecin, H23. The class given is cell-based, human. On the procedure:
(§1) Control cells received no pretreatment. […] CK2 activator treatment was for the duration of the assay. Cell viability was scored 3 days post-start of camptothecin treatment.
(§2) Viability assays were performed 24 hours post-vector treatment by exposing cells for 24 hours to increasing doses of camptothecin (a topoisomerase I inhibitor) in triplicate in a 96-well viability assay, and assaying them for viability 5 days post-start of vector treatment (FIG. 5B). For each growth curve, cell viabilities were normalized to the viability of cells treated with vector only (no camptothecin), to enable a direct visualization of the sensitization effect.
Studies of a large panel of cell lines have shown that cell lines with overexpressed CK2 (FIGS. 11B1-B3 and 11C1-C3) display hyper serine phosphorylation of topo I (FIG. 11D) that correlates with sensitivity to camptothecin (FIG. 11A). […] Cells were plated at 2000 cells per well and allowed to attach. Triplicate wells were then treated with the indicated doses of camptothecin for 18 hours, and monitored for viability 3 days post-start of treatment. Viability is represented as a % of control, untreated, cell viability. Referring to FIGS. 11B1-B3, PKC (B1), cdk1 (B2), and CK2 (B3) levels in cancer cell lines: Cell lysates were prepared from the indicated cancer cell lines and assayed for enzymatic activities, or evaluated by Western analysis for total PKC, cdk1, or CK2 protein levels. Actin levels served as a control (same control for PKC, cdk1, and CK2). Referring to FIGS. 11C1-C3 PKC (C1), cdk1 (C2), and CK2 (C3) levels in normal cell lines, compared to H358 and H23: Cell lysates were prepared from the indicated cell lines and evaluated as before. Numbers below Western blots indicate digital reading of band intensities of PCK, cdk1, or CK2 Western blots, relative to H358. Referring to FIG. 11D, topo-I immunoprecipitation followed by topo-I Western (top row) or phosphoserine Western (bottom row). Numbers below Western blot are digital readings of ser-P band intensities relative to H358.

In data set [1] the target is T1, topoisomerase I (Homo sapiens, UniProt P11387).
T1 construct: endogenous in cells; host or cells: H358 and H23 cells
T1 sequence (P11387 2-765 limits assumed): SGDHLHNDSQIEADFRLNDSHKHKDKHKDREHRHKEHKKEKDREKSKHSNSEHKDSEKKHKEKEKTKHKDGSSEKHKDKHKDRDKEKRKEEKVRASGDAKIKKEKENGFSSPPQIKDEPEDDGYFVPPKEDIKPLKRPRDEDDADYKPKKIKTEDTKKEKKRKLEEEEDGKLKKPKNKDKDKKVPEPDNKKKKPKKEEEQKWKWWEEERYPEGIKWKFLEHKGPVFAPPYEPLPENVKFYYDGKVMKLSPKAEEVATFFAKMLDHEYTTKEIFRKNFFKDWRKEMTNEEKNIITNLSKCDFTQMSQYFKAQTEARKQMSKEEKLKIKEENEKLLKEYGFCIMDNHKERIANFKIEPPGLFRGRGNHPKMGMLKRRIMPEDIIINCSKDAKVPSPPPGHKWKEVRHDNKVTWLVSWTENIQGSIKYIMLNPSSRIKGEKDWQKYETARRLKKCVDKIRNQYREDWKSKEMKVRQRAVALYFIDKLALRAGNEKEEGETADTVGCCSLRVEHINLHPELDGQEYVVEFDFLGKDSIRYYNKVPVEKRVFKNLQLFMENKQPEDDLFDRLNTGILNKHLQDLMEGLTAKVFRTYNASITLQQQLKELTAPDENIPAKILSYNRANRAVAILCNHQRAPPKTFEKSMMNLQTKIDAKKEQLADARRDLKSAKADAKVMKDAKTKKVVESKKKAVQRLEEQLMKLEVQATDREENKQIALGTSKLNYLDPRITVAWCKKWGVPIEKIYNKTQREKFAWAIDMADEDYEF
Nature of the data set: topoisomerase I plasmid relaxation assay, agent added to nuclear extracts in vitro. The settings on record: for effect on H358 topoisomerase activity: 3, 9, 27 ng added to 0.06 μg H358 extract; for effect on H23 topoisomerase activity: 3, 9, 27 ng added to 0.6 μg H23 extract. The class given is biochemical. The procedure:
Similar assays were carried out using the amount of each respective nuclear extract that produced a 50% conversion of supercoiled to relaxed form (0.06 and 0.6 μg extract protein per reaction for H358 and H23, respectively), and added increasing amounts of purified thioredoxin-ARF (3, 9, 27 ng).
Topoisomerase I Assays: Assays were carried out using the Topoisomerase I Assay Kit (Topogen, Florida), according to the instructions provided with the kit and using the high salt nuclear extracts prepared as described above. Briefly, 0.125 μg supercoiled plasmid DNA was incubated with 0-1.3 μg of nuclear extract for 30 minutes at 37° C. The reaction was stopped by adding stop loading dye supplied in the kit and electrophoresed on a 1% agarose/TAE (10 mM TRIS-acetate/1 mM EDTA) gel until the dye front had reached the bottom of the gel. The gel was then stained for 20 minutes in 0.5 μg/mL ethidium bromide, destained in deionized water for 30 minutes, and electrophoresed for an additional hour to enhance band visibility. The gel was photographed and band intensities were analyzed digitally using a Kodak digital camera and analysis software. Some assays were carried out with alkaline phosphatase-treated extracts, prepared as described below, or in the presence of ARF or ARF1β thioredoxin fusion proteins (3, 9, 27 ng), prepared as described above (see pull-down assays).

In data set [2] the test system is ARF/topoisomerase I complex. Nature of the data set: ARF binding / co-immunoprecipitation of topoisomerase I after in vitro enzyme treatment. Set-up: species or system human. The text has this: (§3) The dephosphorylated topoisomerase I from H358 cells could no longer be activated by addition of increasing amounts of ARF fusion protein (FIG. 3B, lanes 7-9).
In data set [3] the target is T1, topoisomerase I. Nature of the data set: phosphoserine Western of topoisomerase I after in vitro enzyme treatment. The class given is biochemical.
Excerpt: as §3

Another data set deals with H358 cells. The experiment in a line: cell viability assay with camptothecin, H358. The conditions noted are these: viability 5 days post-start of vector treatment. The class given is cell-based, human. On the procedure:
as §1, §2
Studies of a large panel of cell lines have shown that cell lines with overexpressed CK2 (FIGS. 11B1-B3 and 11C1-C3) display hyper serine phosphorylation of topo I (FIG. 11D) that correlates with sensitivity to camptothecin (FIG. 11A). […] Triplicate wells were then treated with the indicated doses of camptothecin for 18 hours, and monitored for viability 3 days post-start of treatment. […] Referring to FIGS. 11B1-B3, PKC (B1), cdk1 (B2), and CK2 (B3) levels in cancer cell lines: Cell lysates were prepared from the indicated cancer cell lines and assayed for enzymatic activities, or evaluated by Western analysis for total PKC, cdk1, or CK2 protein levels. […] Numbers below Western blot are digital readings of ser-P band intensities relative to H358.

The subject of another data set is ARF. The experiment in a line: Western analysis of ARF protein levels in treated H358 cells. The class given is cell-based, human. The settings on record: 72 hours post-siRNA. An excerpt: FIG. 5B is a series of graphs showing H358 and PC-3 cell viabilities assayed 5 days post-vector treatment (adenoviral vector, moi 20 pfu/cell, or siRNA), and 4 days post treatment with increasing doses of camptothecin. Viability is expressed as a percent of no-camptothecin control for each vector or siRNA treatment. Results represent average of triplicate wells, with standard deviations indicated. Treatments: Adp14 (ARF full length ▪); Ad1β (ARF N-term ◯); siRNA control (▾); no vector (●); siRNA exon 2 (∇). […] Digital analyses of ARF levels are shown below ARF lanes. (lower panel) H358 cell viability assay following the indicated treatments. Viability was measured 3 days post-start of camptothecin treatment.
Adenoviral vectors were used to achieve ectopic overexpression of full-length ARF (Adp14) or ARF-N-terminal domain (Ad1β), and RNA interference to down-regulate endogenous expression of ARF. As shown by the Western analysis of H358 cells in FIG. 5A, ARF levels increased by some 3-fold, as determined by digital analysis of band intensities, by 48 hours post-treatment with Adp14 (moi, 20 pfu/cell, FIG. 5A, lane 1), relative to Ad1β-treated cells (FIG. 5A, lane 2) or untreated cells (FIG. 5A, lane 4). […]

Where [4] appears, read: purified recombinant human topoisomerase I.

With `CC[C@@]1(O)C(=O)OCc2c1cc1n(c2=O)Cc2cc3ccccc3nc2-1` [camptothecin], the “sensitivity to camptothecin compared with H358 and PC-3” value with HT29 cells and in the data set on H23 cells (viability 3 days after treatment) was “more resistant” throughout. In addition, in the data set with Hela cells, the sensitivity to camptothecin result is “intermediate to that of H23 and H358”. The response to camptothecin entry in the data set with H23 cells was “greatly reduced response”.
In the case of “Thioredoxin-ARF: purified recombinant human ARF-thioredoxin fusion protein, full length”, in the data set with topoisomerase I [1], the “effect on H358 topoisomerase activity” value is listed as “enhanced the activity of H358 topoisomerase in a dose-dependent manner” and the “effect on H23 topoisomerase activity” value is “no effect”.
For alkaline phosphatase, the “co-immunoprecipitation of topoisomerase I with ARF / complex formation” value in data set [2] (nuclear extracts) was “failed to co-immunoprecipitate”. Moreover, in data set [2] (setting [4]), the “binding of recombinant ARF fusion protein by purified recombinant human topoisomerase I” value is “abolished its ability to bind recombinant ARF fusion protein”. In addition, at topoisomerase I [1] (H358 and H23 nuclear extracts treated with the enzyme), the “topoisomerase I activity in vitro” value is reported as “abolished their topoisomerase I activity”. Also, at topoisomerase I [3] (H358 and H23 nuclear extracts), the “topoisomerase I serine phosphorylation” value was “eliminated serine phosphorylation”. For the same molecule, the “serine phosphorylation of purified recombinant human topoisomerase I” value on topoisomerase I [3] (setting [4]) is recorded as “abolished serine phosphorylation”.
Regarding “siRNA to exon 1β: siRNA to the exon 1β region of ARF (SEQ ID NO: 4 and 5) (chain 1 GGGUUUUCGUGGUUCACAUTT; chain 2 AUGUGAACCACGAAAACCCTC; chemistry not given here)”, in the data set on H358 cells, the “sensitivity to camptothecin after exon 1β siRNA with or without Adp14” value is “decreased sensitivity to camptothecin”. The “ARF protein level relative to untreated cells” value with ARF is “about 0.25”.

B1: thioredoxin ARF-N-terminus: thioredoxin fusion of the N-terminal 64 amino acid residues of ARF, does not bind topoisomerase I (protein, UniProt Q8N726 1-64, looked up, fragment)
chain: MVRRFLVTLRIRRACGPPRVRVFVVHIPRLTGEWAAPGAPAAVALVLMLLRSQRLGQQPLPRRP
modifications: thioredoxin fusion
As to B1, in the data set with topoisomerase I [1], the “effect on H358 topoisomerase activity” value was “Neither H358 not H23 topoisomerase activities responded” and the “effect on H23 topoisomerase activity” value was “Neither H358 not H23 topoisomerase activities responded”.
